# US6605634B2 (Amgen, Inc., priority 1996, dated 2003)
# System: production of tumor necrosis factor (TNF) by monocytes activated with bacterial lipopolysaccharide (LPS)
# Test: Lipopolysaccharide-activated Monocyte TNF Production Assay
# Assay type: cell-based
# Details: Homo sapiens, TNF in culture supernatants by ELISA, read-out: IC50 (concentration of test compounds causing a 50% reduction in TNF production)
# Protocol: Lipopolysaccharide-activated Monocyte TNF Production Assay
# Test compounds were evaluated in vitro for the ability to inhibit the production of tumor necrosis factor (TNF) by monocytes activated with bacterial lipopolysaccharide (LPS). Fresh residual source leukocytes (a byproduct of plateletpheresis) were obtained from the local blood bank and peripheral blood mononuclear cells (PBMCs) were isolated by density gradient centrifugation on Ficol-Paque Plus (Pharmacia). PBMCs were suspended at 2×10^6/ml in DMEM supplemented to contain 2% FCS (10 mM), 0.3 mg/ml glutamate, 100 U/ml penicillin G and […] streptomycin sulfate (complete media). Cells were plated into Falcon flatbottom 96 well culture plates (200 μl/well) and cultured overnight at 37° C. and 6% CO2. Nonadherent cells were removed by washing with 200 μl/well of fresh medium. Wells containing adherent cells (˜70% monocytes) were replenished with 100 μl of fresh medium.
# Preparation of Test Compound Stock Solutions
# Test compounds were dissolved in […]. Compound stock solutions were prepared to an initial concentration of […]. Stocks were diluted initially to 20-200 μM in complete media. Nine two-fold serial dilutions of each compound were then prepared in complete medium.
# Treatment of Cells with Test Compounds and Activation of TNF Production with Lipopolysaccharide
# One hundred microliters of each test compound dilution were added to microtiter wells containing adherent monocytes and 100 μl complete medium. Monocytes were cultured with test compounds for 60 min at which time 25 μl of complete medium containing 30 ng/ml lipopolysaccharide from E. coli K532 were added to each well. Cells were cultured an additional 4 hrs. Culture supernatants were then removed and TNF present in the supernatants was quantified using an ELISA.
# Flat bottom 96 well Coming High Binding ELISA plates were coated overnight (4° C.) with 150 μL/well of 3 μg/ml murine anti-human TNFa MAb (R&D Systems #MAB210). Wells were then blocked 1 h at room temperature with 200 μL/well of CaCl2-free ELISA buffer supplemented to contain 20 mg/ml BSA (standard ELISA buffer: […], 150 mM NaCl, 2 mM CaCl2, 0.15 mM thimerosal, pH 7.4). Plates were washed and replenished with 100 μl of test supernatants (diluted 1:3) or standards. Standards consisted of eleven 1.5-fold serial dilutions from a stock of 1 ng/ml recombinant human TNF (R&D Systems). Plates were incubated at room temperature for 1 h on orbital shaker (300 rpm), washed and replenished with 100 μl/well of 0.5 jig/ml goat anti-human TNFa (R&D systems #AB-210-NA) biotinylated at a 4:1 ratio. Plates were incubate for 40 min, washed and replenished with 100 μl/well of alkaline phosphatase-conjugated streptavidin (Jackson ImmunoResearch #016-050-084) at 0.02 μg/ml. Plates were incubated 30 min, washed and replenished with 200 μl well of 1 mg/ml of p-nitrophenyl phosphate. After 30 min, plates were read at 405 nm on a Vmax plate reader.
# Standard curve data were fit to a second order polynomial and unknown TNF-a concentrations determined from their OD by solving this equation for concentration. TNF concentrations were then plotted Vs test compound concentration using a second order polynomial. This equation was then used to calculate the concentration of test compounds causing a 50% reduction in TNF production.
row,Compound,IC50 [µM]
1,"CC(C)(C)OC(=O)N1CCC(C(=O)Nc2ccc3c(-c4ccncc4)c(-c4ccc(F)cc4)[nH]c3n2)CC1 [Compound 106, 6-(4′-N-t-butoxycarbonylisonipecotylamino)-3-(4-pyridyl)-2-(4-fluorophenyl)-7-aza-indole]",< 1
2,"N[C@@H](Cc1csc2ccccc12)C(=O)Nc1ccc2c(-c3ccncc3)c(-c3ccc(F)cc3)[nH]c2n1 [Compound 137, 6-(3′-(3-benzothienyl)-1′-oxo-2′S-aminopropylamino)-3-(4-pyridyl)-2-(4-fluorophenyl)-7-aza-indole]",< 20
3,"CC(C)CCNc1ccc2c(-c3ccncc3)c(-c3ccc(F)cc3)[nH]c2n1 [Compound 152, 6-(isoamylamino)-3-(4-pyridyl)-2-(4-fluorophenyl)-7-aza-indole]",< 20
4,"CN[C@@H](C(=O)Nc1ccc2c(-c3ccncc3)c(-c3ccc(F)cc3)[nH]c2n1)c1ccccc1 [Compound 121, 6-(2′-phenyl-1′-oxo-2′R-N-methylaminoethylamino)-3-(4-pyridyl)-2-(4-fluorophenyl)-7-aza-indole]",< 1
5,"NCCCC[C@H](N)C(=O)Nc1ccc2c(-c3ccncc3)c(-c3ccc(F)cc3)[nH]c2n1 [Compound 67, 6-(6′-amino-1′-oxo-2′-aminohexylamino)-3-(4-pyridyl)-2-(4-fluorophenyl)-7-aza-indole]",< 20
6,"O=S(=O)(Nc1ccc2c(-c3ccncc3)c(-c3ccc(F)cc3)[nH]c2n1)c1ccc(Cl)s1 [Compound 95, 6-(2′-(5-chlorothienyl)sulfonylamino)-3-(4-pyridyl)-2-(4-fluorophenyl)-7-aza-indole]",< 20
7,"Fc1ccc(-c2[nH]c3ccccc3c2-c2ccncc2)cc1 [Compound 3, 3-(4-pyridyl)-2-(4-fluorophenyl)indole]",< 20
8,"CC(O)[C@H](N)C(=O)Nc1ccc2c(-c3ccncc3)c(-c3ccc(F)cc3)[nH]c2n1 (stereo partly drawn) [Compound 85, 6-(3′-hydroxy-1′-oxo-2′-aminobutylamino)-3-(4-pyridyl)-2-(4-fluorophenyl)-7-aza-indole]",< 20
9,"CS(=O)(=O)Nc1ccc2c(-c3ccncc3)c(-c3ccc(F)cc3)[nH]c2n1 [Compound 93, 6-(methylsulfonylamino)-3-(4-pyridyl)-2-(4-fluorophenyl)-7-aza-indole]",< 20
